Measurements published in US20090088461A1, “Methods of Treating or Preventing Cardiac Disease Associated With a High Fat Diet” (Synvista Therapeutics, Inc., priority 2007, published 2009).

What follows are compounds tested against T1, AGE-BSA previously crosslinked to the collagen (Bos taurus, UniProt P02769) (assay: Cross-Link Breaking Assay (sandwich enzyme immunoassay)). Settings: at 0.3 mM, anti-AGE antibody.
T1 construct: Bovine Serum Albumin (Type V), (BSA) Calbiochem; purchased Calbiochem (BSA Type V); Collaborative Biomedical Products (Biocoat collagen plates)
Format: biochemical
Method: The present invention also involves a novel sandwich enzyme immunoassay used to ascertain the ability of test compounds to “break” or reverse already formed advanced glycosylation endproducts by detecting the breaking of AGE (Advanced glycosylation endproduct) moieties from AGE-crosslinked protein. This assay comprises:
a) incubation of AGE-modified bovine serum albumin (AGE BSA) on collagen-coated wells of microtiter plates for a period of 2-6 hours' at a temperature of 37° C.
b) washing of the wells with PBS-Tween;
c) application of the test compounds to the washed wells of step b;
d) incubation of the test compounds applied to the washed wells for an additional 12-24 hours at a temperature of about 37° C.; and
e) detection of the AGE-breaking using an antibody raised against AGE-ribonuclease or cross-link breaking with an antibody against BSA.
In order to ascertain the ability of the compounds of the instant invention to “break” or reverse already formed advanced glycosylation endproducts, a novel sandwich enzyme immunoassay was developed which detects breaking of AGE (Advanced glycosylation endproduct) moieties from AGE-crosslinked protein. The assay utilizes collagen-coated 96 well microtiter plates that are obtained commercially. […] Following an incubation period of 16 hours (37° C.) cross-link-breaking is detected using an antibody raised against AGE-ribonuclease or with an antibody against BSA. […] Details of the assay are as follows:
1. AGE-BSA stock solutions were prepared as follows. Sodium phosphate buffer (0.4 M) was prepared by dissolving 6 grams of monobasic sodium phosphate in 100 ml of distilled water, 7 grams of dibasic sodium phosphate (0.4 M) in 100 ml of distilled water and adjusting the pH of the dibasic solution to 7.4 with the monobasic solution. Sodium azide (0.02 grams) was added per 100 ml volume to inhibit bacterial growth. The BSA solution was prepared as follows: 400 mg of Type V BSA (bovine serum albumin) was added for each ml of sodium phosphate buffer (above). A 400 mM glucose solution was prepared by dissolving 7.2 grams of dextrose in 100 ml of sodium phosphate buffer (above). The BSA and glucose solutions were mixed 1:1 and incubated at 37° C. for 12 weeks. The pH of the incubation mixture was monitored weekly and adjusted to pH 7.4 if necessary. After 12 weeks, the AGE-BSA solution was dialyzed against PBS for 48 hours with four buffer changes, each at a 1:500 ratio of solution to dialysis buffer. Protein concentration was determined by the micro-Lowry method. The AGE-BSA stock solution was aliquoted and stored at −20° C.
2. Working solutions for crosslinking and breaking studies were prepared as follows. Test compounds were dissolved in PBS and the pH was adjusted to pH 7.4 if necessary. AGE-BSA stock solution was diluted in PBS to measure maximum crosslinking and in the inhibitor solution for testing inhibitory activity of compounds. The concentration of AGE-BSA necessary to achieve the optimum sensitivity was determined by initial titration of each lot of AGE-BSA.
3. Wash buffer (“PBS-Tween”) was, prepared as follows. PBS was prepared by dissolving the following salts in one liter of distilled water: NaCl, 8 grams; KCl, 0.2 gram, KH2PO4. […] Tween-20 was added to a final concentration of 0.05% (vol/vol).
4. Substrates for detection of secondary antibody binding were prepared by diluting the HRP substrate buffer 1:10 in distilled water and mixing with ABTS chromogen 1:50 just prior to use.
1. Biocoat plates were blocked with 300 μl of “Superbloc”. Plates were blocked for one hour at room temperature and were washed with PBS-Tween three times with the Dynatech platewasher before addition of test reagents.
2. Each experiment was set up in the following manner. The first three wells of the Biocoat plate were used for the reagent blank. Fifty microliters of solutions AGE-BSA were added to test wells in triplicate and only PBS in blank wells.

T1 sequence (P02769 25-607): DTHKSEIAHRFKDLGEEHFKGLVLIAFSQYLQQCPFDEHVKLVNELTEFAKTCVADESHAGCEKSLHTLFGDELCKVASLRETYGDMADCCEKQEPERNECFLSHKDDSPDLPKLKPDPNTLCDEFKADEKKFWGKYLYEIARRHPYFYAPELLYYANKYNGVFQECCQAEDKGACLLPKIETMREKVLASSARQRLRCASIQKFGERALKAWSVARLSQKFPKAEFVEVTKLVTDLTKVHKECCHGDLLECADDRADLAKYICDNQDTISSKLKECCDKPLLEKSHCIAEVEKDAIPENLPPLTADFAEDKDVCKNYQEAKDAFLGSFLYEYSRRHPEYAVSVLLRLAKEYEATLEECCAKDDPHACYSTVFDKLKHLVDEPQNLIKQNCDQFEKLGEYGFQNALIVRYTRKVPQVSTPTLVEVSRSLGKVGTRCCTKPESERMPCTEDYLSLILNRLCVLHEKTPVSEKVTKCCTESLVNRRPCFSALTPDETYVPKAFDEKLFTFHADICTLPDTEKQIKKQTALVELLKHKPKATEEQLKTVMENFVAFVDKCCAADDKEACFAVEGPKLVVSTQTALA
T1 sequence (P02454 152-1207 partner limits assumed): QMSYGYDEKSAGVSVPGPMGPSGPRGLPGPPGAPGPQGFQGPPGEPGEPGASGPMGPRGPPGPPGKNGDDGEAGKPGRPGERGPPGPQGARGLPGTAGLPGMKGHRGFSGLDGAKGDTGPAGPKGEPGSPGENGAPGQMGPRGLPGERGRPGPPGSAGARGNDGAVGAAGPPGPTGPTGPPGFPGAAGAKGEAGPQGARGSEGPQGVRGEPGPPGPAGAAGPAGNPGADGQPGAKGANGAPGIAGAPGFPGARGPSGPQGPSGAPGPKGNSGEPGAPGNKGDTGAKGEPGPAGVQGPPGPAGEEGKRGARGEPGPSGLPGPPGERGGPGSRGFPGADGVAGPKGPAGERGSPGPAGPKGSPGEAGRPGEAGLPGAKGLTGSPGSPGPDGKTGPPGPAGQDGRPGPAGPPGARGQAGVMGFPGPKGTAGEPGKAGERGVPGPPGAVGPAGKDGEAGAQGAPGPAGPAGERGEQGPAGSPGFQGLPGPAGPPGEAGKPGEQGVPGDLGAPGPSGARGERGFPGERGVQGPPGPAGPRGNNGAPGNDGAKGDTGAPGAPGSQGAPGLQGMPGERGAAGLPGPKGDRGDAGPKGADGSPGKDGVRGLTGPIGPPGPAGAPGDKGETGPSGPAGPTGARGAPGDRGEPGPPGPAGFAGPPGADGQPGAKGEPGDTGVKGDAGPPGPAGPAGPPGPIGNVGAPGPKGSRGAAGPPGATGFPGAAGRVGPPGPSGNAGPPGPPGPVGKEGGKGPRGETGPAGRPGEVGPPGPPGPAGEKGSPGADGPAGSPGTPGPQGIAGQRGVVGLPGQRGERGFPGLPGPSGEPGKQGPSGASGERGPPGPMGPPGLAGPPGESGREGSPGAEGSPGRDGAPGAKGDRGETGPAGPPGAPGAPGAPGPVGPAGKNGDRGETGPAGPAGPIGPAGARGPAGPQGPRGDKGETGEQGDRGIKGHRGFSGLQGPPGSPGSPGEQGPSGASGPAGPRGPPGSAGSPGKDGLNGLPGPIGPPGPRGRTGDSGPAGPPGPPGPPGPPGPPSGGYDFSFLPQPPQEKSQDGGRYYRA
T1 sequence (P02466 86-1125 partner limits assumed): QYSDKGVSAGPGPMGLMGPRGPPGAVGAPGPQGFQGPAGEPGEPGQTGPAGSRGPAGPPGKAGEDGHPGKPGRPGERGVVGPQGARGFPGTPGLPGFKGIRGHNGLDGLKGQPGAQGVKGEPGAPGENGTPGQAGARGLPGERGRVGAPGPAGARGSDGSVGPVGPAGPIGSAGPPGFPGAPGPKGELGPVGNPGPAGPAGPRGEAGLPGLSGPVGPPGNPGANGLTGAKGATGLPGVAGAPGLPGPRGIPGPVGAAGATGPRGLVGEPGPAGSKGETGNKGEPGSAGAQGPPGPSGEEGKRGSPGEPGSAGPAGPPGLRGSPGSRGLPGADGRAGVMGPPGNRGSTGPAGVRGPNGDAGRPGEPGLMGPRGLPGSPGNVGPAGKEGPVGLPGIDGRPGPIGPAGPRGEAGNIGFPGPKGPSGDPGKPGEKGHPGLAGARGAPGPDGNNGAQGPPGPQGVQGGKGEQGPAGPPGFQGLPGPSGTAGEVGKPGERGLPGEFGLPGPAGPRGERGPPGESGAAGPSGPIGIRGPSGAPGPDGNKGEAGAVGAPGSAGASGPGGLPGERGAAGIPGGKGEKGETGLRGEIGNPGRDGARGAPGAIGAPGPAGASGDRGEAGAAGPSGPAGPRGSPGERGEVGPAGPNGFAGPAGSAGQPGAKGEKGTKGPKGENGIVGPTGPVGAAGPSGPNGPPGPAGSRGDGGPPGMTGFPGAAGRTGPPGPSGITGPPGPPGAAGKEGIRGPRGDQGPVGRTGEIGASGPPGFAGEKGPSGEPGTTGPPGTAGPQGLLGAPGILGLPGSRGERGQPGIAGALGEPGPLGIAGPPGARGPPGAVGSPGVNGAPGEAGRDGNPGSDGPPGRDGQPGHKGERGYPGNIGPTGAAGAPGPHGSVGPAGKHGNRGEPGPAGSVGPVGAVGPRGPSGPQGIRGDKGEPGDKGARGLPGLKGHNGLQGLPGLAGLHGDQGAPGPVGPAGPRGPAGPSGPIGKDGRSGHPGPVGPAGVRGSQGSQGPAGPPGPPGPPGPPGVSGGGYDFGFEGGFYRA

Cc1csc[n+]1CC(=O)c1cc(C(C)(C)C)c(O)c(C(C)(C)C)c1.[Br-] [3-[2-(3′,5′-di-tert-butyl-4′-hydroxyphenyl)-2-oxoethyl]-4-methyl-thiazolium bromide] was tested, and the “Breaking Anti-AGE” value was 14%.

Same assay, conditions: at 0.3 mM, anti-BSA antibody

In the case of Cc1csc[n+]1CC(=O)c1cc(C(C)(C)C)c(O)c(C(C)(C)C)c1.[Br-] [3-[2-(3′,5′-di-tert-butyl-4′-hydroxyphenyl)-2-oxoethyl]-4-methyl-thiazolium bromide], the “Breaking Anti-BSA” value is reported as 2%.

Same assay, conditions: at 3 mM, anti-AGE antibody

With Cc1c(CCO)sc[n+]1CC(=O)c1ccc2c(c1)OCCO2.[Br-] [3 (2-(1′,4′-benzodioxan-6-yl)-2-oxoethyl]-4-methyl-5-(2′-hydroxyethyl)-thiazolium bromide] the “Breaking Anti-AGE” value was 11%.

Same assay, conditions: at 3 mM, anti-BSA antibody

Cc1c(CCO)sc[n+]1CC(=O)c1ccc2c(c1)OCCO2.[Br-] [3 (2-(1′,4′-benzodioxan-6-yl)-2-oxoethyl]-4-methyl-5-(2′-hydroxyethyl)-thiazolium bromide] was tested, and the “Breaking Anti-BSA” value was 21%.

Same assay, conditions: at 10 mM, anti-AGE antibody

Point of comparison: Cc1c(CCO)sc[n+]1CC(=O)Nc1c(C(C)C)cccc1C(C)C.[Br-] [3-(2-(2′,6′-Diisopropylanilino)-2-oxoethyl]-4-methyl-5-(2′-hydroxyethyl)-thiazolium bromide], “Breaking Anti-AGE” value 31%. Against it:
- C[n+]1ccn(CC(=O)c2cc(C(C)(C)C)c(O)c(C(C)(C)C)c2)c1 [1-methyl-3-(2-(3′,5′-di-tert-butyl-4′-hydroxyphenyl)-2-oxoethyl]-imidazolium bromide] — higher, 56%
- CCOC(=O)c1ccc(NC(=O)C[n+]2csc(CCO)c2C)cc1.[Br-] [3-(2-4′-carbethoxyanilino)-2-oxoethyl]-4-methyl-5-(2′-hydroxyethyl)-thiazolium bromide] — higher, 48%
- COC(=O)c1ccc(NC(=O)C[n+]2csc(CCO)c2C)cc1O [3-(2-(4′-carbmethoxy-3′-hydroxyanilino)-2-oxoethyl]-4-methyl-5-(2′-hydroxyethyl)-thiazolium bromide] — lower, 24%
- CCCCN(CCCC)C(=O)C[n+]1csc(CCO)c1C.[Br-] [3-(2-Dibutylamino-2-oxoethyl]-4-methyl-5-(2′-hydroxyethyl)-thiazolium bromide] — lower, 25%

Same assay, conditions: at 10 mM, anti-BSA antibody

Point of comparison: CCOC(=O)c1ccc(NC(=O)C[n+]2csc(CCO)c2C)cc1.[Br-] [3-(2-4′-carbethoxyanilino)-2-oxoethyl]-4-methyl-5-(2′-hydroxyethyl)-thiazolium bromide], “Breaking Anti-BSA” value 57%. Against it:
- C[n+]1ccn(CC(=O)c2cc(C(C)(C)C)c(O)c(C(C)(C)C)c2)c1 [1-methyl-3-(2-(3′,5′-di-tert-butyl-4′-hydroxyphenyl)-2-oxoethyl]-imidazolium bromide] — lower, 38%
- Cc1c(CCO)sc[n+]1CC(=O)Nc1c(C(C)C)cccc1C(C)C.[Br-] [3-(2-(2′,6′-Diisopropylanilino)-2-oxoethyl]-4-methyl-5-(2′-hydroxyethyl)-thiazolium bromide] — lower, 48%
- COC(=O)c1ccc(NC(=O)C[n+]2csc(CCO)c2C)cc1O [3-(2-(4′-carbmethoxy-3′-hydroxyanilino)-2-oxoethyl]-4-methyl-5-(2′-hydroxyethyl)-thiazolium bromide] — lower, 18%
- CCCCN(CCCC)C(=O)C[n+]1csc(CCO)c1C.[Br-] [3-(2-Dibutylamino-2-oxoethyl]-4-methyl-5-(2′-hydroxyethyl)-thiazolium bromide] — lower, 38%

Same assay, conditions: at 30 mM, anti-AGE antibody

Point of comparison: COC(=O)C[n+]1cscc1C.[Br-] [3-(2-methoxy-2-oxoethyl)-4-methylthiazolium bromide], “Breaking Anti-AGE” value 54%. Against it:
- COC(=O)C[n+]1ccsc1.[Br-] [3-(2-Methoxy-2-Oxoethyl)-Thiazolium Bromide] — lower, 38%
- Cc1sc[n+](CC(N)=O)c1C.[Br-] [3-(2-amino-2-oxoethyl)-4,5-dimethyl-thiazolium bromide] — higher, 61%
- Cc1csc[n+]1CC(N)=O.[Br-] [3-(2-amino-2-oxoethyl)-4-methyl-thiazolium bromide] — higher, 89%
- COC(=O)C[n+]1csc(C)c1C.[Br-] [3-(2-methoxy-2-oxoethyl)-4,5-dimethylthiazolium bromide] — higher, 63%
- COC(=O)C[n+]1csc(C)c1.[Br-] [3-(2-methoxy-2-oxoethyl)-5-methyl-thiazolium bromide] — higher, 72%

Same assay, conditions: at 30 mM, anti-BSA antibody

Point of comparison: COC(=O)C[n+]1cscc1C.[Br-] [3-(2-methoxy-2-oxoethyl)-4-methylthiazolium bromide], “Breaking Anti-BSA” value 51%. Against it:
- COC(=O)C[n+]1ccsc1.[Br-] [3-(2-Methoxy-2-Oxoethyl)-Thiazolium Bromide] — lower, 41%
- Cc1sc[n+](CC(N)=O)c1C.[Br-] [3-(2-amino-2-oxoethyl)-4,5-dimethyl-thiazolium bromide] — lower, 16%
- Cc1csc[n+]1CC(N)=O.[Br-] [3-(2-amino-2-oxoethyl)-4-methyl-thiazolium bromide] — lower, 44%
- COC(=O)C[n+]1csc(C)c1C.[Br-] [3-(2-methoxy-2-oxoethyl)-4,5-dimethylthiazolium bromide] — lower, 47%
- COC(=O)C[n+]1csc(C)c1.[Br-] [3-(2-methoxy-2-oxoethyl)-5-methyl-thiazolium bromide] — lower, 27%

What follows are compounds tested against cross-linking of glycated bovine serum albumin (AGE-BSA) to the rat tail tendon collagen-coated 96-well plate (Bos taurus, UniProt P02769) (assay: Cross-Linking Inhibition Assay). Settings: not given.
cross-linking of glycated bovine serum albumin (AGE-BSA) to the rat tail tendon collagen-coated 96-well plate, sequence (P02769 25-607): as the sequence (P02769 25-607) above

Point of comparison: COC(=O)C[n+]1csc(C)c1.[Br-] [3-(2-methoxy-2-oxoethyl)-5-methyl-thiazolium bromide], IC50 3.2 mM. Against it:
- C[n+]1ccn(CC(=O)c2cc(C(C)(C)C)c(O)c(C(C)(C)C)c2)c1 [1-methyl-3-(2-(3′,5′-di-tert-butyl-4′-hydroxyphenyl)-2-oxoethyl]-imidazolium bromide] — within 1.5-fold, 4.5 mM
- COC(=O)c1ccc(NC(=O)C[n+]2csc(CCO)c2C)cc1O [3-(2-(4′-carbmethoxy-3′-hydroxyanilino)-2-oxoethyl]-4-methyl-5-(2′-hydroxyethyl)-thiazolium bromide] — 1.8-fold lower, 1.76 mM
- COC(=O)C[n+]1ccsc1.[Br-] [3-(2-Methoxy-2-Oxoethyl)-Thiazolium Bromide] — 13-fold lower, 0.25 mM
- Cc1sc[n+](CC(N)=O)c1C.[Br-] [3-(2-amino-2-oxoethyl)-4,5-dimethyl-thiazolium bromide] — 3.1-fold higher, 9.9 mM
- Cc1csc[n+]1CC(N)=O.[Br-] [3-(2-amino-2-oxoethyl)-4-methyl-thiazolium bromide] — 4.6-fold lower, 0.7 mM
- COC(=O)C[n+]1csc(C)c1C.[Br-] [3-(2-methoxy-2-oxoethyl)-4,5-dimethylthiazolium bromide] — 6.7-fold lower, 0.48 mM

Same assay, conditions: 0.3 mM

With Cc1csc[n+]1CC(=O)c1cc(C(C)(C)C)c(O)c(C(C)(C)C)c1.[Br-] [3-[2-(3′,5′-di-tert-butyl-4′-hydroxyphenyl)-2-oxoethyl]-4-methyl-thiazolium bromide] the “Relative Cross-link Inhibition” value was 24% @ 0.3 mM.

Same assay, conditions: 1 mM

CCOC(=O)c1ccc(NC(=O)C[n+]2csc(CCO)c2C)cc1.[Br-] [3-(2-4′-carbethoxyanilino)-2-oxoethyl]-4-methyl-5-(2′-hydroxyethyl)-thiazolium bromide] was tested, and the “Relative Cross-link Inhibition” value was 8.8% (1 mm).

Same assay, conditions: at 10 mM

Point of comparison: Cc1c(CCO)sc[n+]1CC(=O)Nc1c(C(C)C)cccc1C(C)C.[Br-] [3-(2-(2′,6′-Diisopropylanilino)-2-oxoethyl]-4-methyl-5-(2′-hydroxyethyl)-thiazolium bromide], “Relative Cross-link Inhibition (at 10 mM)” value 19%. Against it:
- Cc1c(CCO)sc[n+]1CC(=O)c1ccc2c(c1)OCCO2.[Br-] [3 (2-(1′,4′-benzodioxan-6-yl)-2-oxoethyl]-4-methyl-5-(2′-hydroxyethyl)-thiazolium bromide] — lower, 13%

Same assay, conditions: read-out: Relative Cross-link Inhibition (at 10 mM)

Point of comparison: CCCCN(CCCC)C(=O)C[n+]1csc(CCO)c1C.[Br-] [3-(2-Dibutylamino-2-oxoethyl]-4-methyl-5-(2′-hydroxyethyl)-thiazolium bromide], inhibition at 10000 µM 0.8%. Against it:
- COC(=O)C[n+]1cscc1C.[Br-] [3-(2-methoxy-2-oxoethyl)-4-methylthiazolium bromide] — higher, 58%
